Some results are limits rather than exact numbers.

We go through 15 compounds from BindingDB's records for doi:10.1016/S0960-894X(00)80254-1 (1991).

The assay can be described thus: Inhibition of angiotensin I phosphorylation catalyzed by the protein-tyrosine kinase p56 lck partially purified from bovine thymus.
As a reminder, the IC50 is the concentration that inhibits the measured activity by half. A higher IC50 goes with a need for much substance. For `O=C(Nc1ccncc1)c1cccnc1`, it took 2120 µM to reach half-maximal inhibition (IC50).
The compound `COc1ccc(/C=C/c2ccccn2)cc1OC` [2-[(E)-2-(3,4-Dimethoxy-phenyl)-vinyl]-pyridine] registered an IC50 of 829 µM.
Regarding `C(=C\c1ccccn1)/c1ccccn1` [2-[(E)-2-pyridin-2-ylvinyl]pyridine], the IC50 amounted to 1230 µM.
With `COc1cc(C(=O)Nc2cccnc2)cc(OC)c1OC` [3,4,5-Trimethoxy-N-pyridin-3-yl-benzamide] the figure was 999 µM.
The value for `COc1cc(C(=O)Nc2ccncc2)cc(OC)c1OC` [3,4,5-Trimethoxy-N-pyridin-4-yl-benzamide] was > 2780 µM; that for `COc1cc(OC)cc(C(=O)Nc2ccccn2)c1` [3,5-Dimethoxy-N-pyridin-2-yl-benzamide] was 205 µM.
With `COc1cc(OC)cc(C(=O)Nc2ccncc2)c1` [3,5-Dimethoxy-N-pyridin-4-yl-benzamide] the figure was 3100 µM; with `COc1ccc(/C=C/c2cccnc2)cc1OC` [3-(3,4-dimethoxystyryl)pyridine], 178 µM; with `COc1cc(CCc2cccnc2)cc(OC)c1OC` [3-[2-(3,4,5-Trimethoxy-phenyl)-ethyl]-pyridine], > 2930 µM.
`COc1ccc(CCc2cccnc2)cc1OC` [3-[2-(3,4-Dimethoxy-phenyl)-ethyl]-pyridine] gave an IC50 of 1320 µM.
The value for `COc1ccc(/C=C/c2cccnc2)cc1` [3-[(E)-2-(4-Methoxy-phenyl)-vinyl]-pyridine] was > 3790 µM; that for `c1cc(CCc2ccncc2)ccn1` [4-(2-pyridin-4-ylethyl)pyridine] was 2910 µM.
The value for `COc1cc(CNc2ccccn2)cc(OC)c1` [(3,5-Dimethoxy-benzyl)-pyridin-2-yl-amine] was > 3280 µM.
With `O=C(Nc1ccncc1)c1ccncc1` [N-Pyridin-4-yl-isonicotinamide] the figure was 2320 µM; with `COc1cc(CNc2ccccn2)cc(OC)c1OC` [Pyridin-2-yl-(3,4,5-trimethoxy-benzyl)-amine], > 2920 µM.
